Data on 9 molecules can be found in patent US10894798B2, “Substituted dihydropyrrolopyrazole derivative” (UBE INDUSTRIES, LTD., priority 2015, dated 2021).

Assay [1] deals with human large intestine cancer cell line (HCT-116). Nature of the assay: Human large intestine cancer (HCT-116) cell growth inhibition test. In kind it is cell-based. The note with it: HCT-116, 72 h, culture for 3 days, sulforhodamine B, read-out: GI50 value, HCT-116 cell growth inhibition. The method, then:
The measurement of a human large intestine cancer cell growth inhibitory effect was carried out by modifying the method of Simak et al. (Cancer Research, 69, 6208 (2009)).
A human large intestine cancer cell line (HCT-116, obtained from DS Pharma Biomedical Co., Ltd.) was cultured in a McCoy's 5A medium (manufactured by Thermo Fisher Scientific, Inc.) containing 10% fetal bovine serum (FBS) (manufactured by Thermo Fisher Scientific, Inc.) and 1% penicillin/streptomycin/amphotericin B (manufactured by Thermo Fisher Scientific, Inc.) and inoculated at 0.5 to 2.0×10^3 cells/well in a 96-well plate. After overnight culture in a carbon dioxide incubator, the medium was replaced with a fresh medium on the next day, and a test compound dissolved in DMSO (final DMSO concentration: 0.1%) was added thereto and left standing in a carbon dioxide incubator. After culture for 3 days, the absorbance thereof was measured by using In Vitro Toxicology Assay Kit Sulforhodamine B based (manufactured by Sigma-Aldrich Co. LLC.).
The rate of inhibition of cell growth at each concentration was calculated from the test compound concentration and the absorbance of sulforhodamine B, and the concentration of the test compound necessary for inhibiting 50% of cell growth (GI50 value) was calculated by using EXSUS (version 8.1.0, manufactured by CAC Exicare Corp.).

In assay [2] the target is T1, PLK1 (Homo sapiens, UniProt P53350).
T1 construct: purchased Carna Biosciences, Inc. 05-157
T1 sequence (P53350 whole entry): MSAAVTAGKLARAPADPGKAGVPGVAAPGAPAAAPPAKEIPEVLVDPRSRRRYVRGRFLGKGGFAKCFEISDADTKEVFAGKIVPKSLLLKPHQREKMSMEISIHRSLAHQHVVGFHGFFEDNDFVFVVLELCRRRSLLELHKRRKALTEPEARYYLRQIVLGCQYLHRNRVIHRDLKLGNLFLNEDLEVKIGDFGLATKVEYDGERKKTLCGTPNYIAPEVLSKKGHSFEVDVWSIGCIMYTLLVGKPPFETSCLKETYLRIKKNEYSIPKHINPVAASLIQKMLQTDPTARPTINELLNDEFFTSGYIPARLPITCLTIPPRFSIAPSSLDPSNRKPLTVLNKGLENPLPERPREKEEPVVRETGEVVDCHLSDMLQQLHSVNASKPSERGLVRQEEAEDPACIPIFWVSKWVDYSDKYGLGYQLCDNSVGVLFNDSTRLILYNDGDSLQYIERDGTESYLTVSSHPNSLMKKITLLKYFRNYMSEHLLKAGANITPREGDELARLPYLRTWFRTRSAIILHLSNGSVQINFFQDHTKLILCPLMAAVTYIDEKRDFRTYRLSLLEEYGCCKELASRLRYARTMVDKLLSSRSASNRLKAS
The assay can be described thus: PLK1 enzyme (polo-like kinase) inhibition test. In kind it is biochemical. To be noted: [γ-33P]ATP, casein substrate; Ki=IC50/(1+S/Km); read-out: Ki value of PLK1 inhibitory activity. The protocol:
The preparation of a buffer solution was performed by mixing a 3-morpholinopropanesulfonic acid buffer solution (MOPS buffer solution) (pH 7.0), dithiothreitol (DTT), and magnesium acetate (Mg(CH3COO)2). A 1 mM [γ-^33P]ATP solution was used by diluting a 10 mM ATP solution and a commercially available [γ-^33P]ATP solution (manufactured by Perkin Elmer, Inc., Code No. NEG-302H) with the buffer solution. A PLK1 solution was used by diluting commercially available PLK1 (manufactured by Carna Biosciences, Inc., Catalog No. 05-157) with the buffer solution. A substrate solution was used by diluting casein with the buffer solution. As for the preparation of a reaction solution, the buffer solution, the 500 μM [γ-^33P]ATP solution, the PLK1 solution, and the substrate solution were mixed at 4° C. to obtain a reaction solution.
(§1) PLK1 enzyme reaction was performed by adding 5 μL of a test compound solution prepared with 10% DMSO/90% injectable distilled water, and 45 μL of the reaction solution in a 1.5 mL microtube at 4° C. and reacting in the microtube at 30° C. for 20 minutes in a water bath incubator. After the reaction, a 10% aqueous trichloroacetic acid (TCA) solution was added to each microtube while cooled to 4° C., and mixed in a vortex mixer to terminate the reaction. The resultant was left standing at 4° C. for 10 minutes and then centrifuged, and the supernatant was discarded. Next, a 2% aqueous trichloroacetic acid (TCA) solution was added thereto, mixed in a vortex mixer, and then centrifuged, and the supernatant was discarded. This washing operation was performed twice. After the washing, precipitates were dissolved in a 1 N aqueous sodium hydroxide (NaOH) solution, and the energy quantity (radioactivity) of the reaction product was measured with a liquid scintillation counter.
The calculation of the inhibitory activity of the test compound against PLK1 was performed as a test compound concentration inhibiting 50% of the amount of ^33P bound to casein (IC50 value) by using EXSUS (version 8.1.0, manufactured by CAC Exicare Corp.).
(§2) The calculation of a Ki value was performed according to the following calculation expression wherein S represents the concentration of ATP contained in the reaction solution, and Km represents a Michaelis-Menten constant: Ki=IC50/(1+S/Km)

Assay [3] has as its target T2, CDK7 (Homo sapiens, UniProt P50613).
T2 construct: purchased Carna Biosciences, Inc. 04-108
Nature of the assay: CDK7 enzyme inhibition test. Format: biochemical. To be noted: [γ-33P]ATP, MBP substrate, 60 min preincubation at 25°C; Ki=IC50/(1+S/Km); read-out: Ki value of CDK7 inhibitory activity. The method, then: (§3) The preparation of a buffer solution was performed by mixing a N-2-hydroxyethylpiperazine-N′-2-ethanesulfonic acid buffer solution (HEPES buffer solution) (pH 7.4), dithiothreitol (DTT), Triton X-100, and magnesium chloride (MgCl2). A 500 μM [γ-^33P]ATP solution was used by diluting a 10 mM ATP solution and a commercially available [γ-^33P]ATP solution (manufactured by PerkinElmer, Inc., Code No. NEG-302H) with the buffer solution. A CDK7 solution was used by diluting commercially available CDK7 (manufactured by Carna Biosciences, Inc., Catalog No. 04-108) with the buffer solution. A substrate solution was used by diluting myelin basic protein (MBP) with the buffer solution. As for the preparation of a reaction solution, the buffer solution, the CDK7 solution, and the substrate solution were mixed at 4° C. to obtain a reaction solution.
CDK7 enzyme reaction was performed by adding 5 μL of a test compound solution prepared with 10% DMSO/90% injectable distilled water, and 40 μL of the reaction solution to a 1.5 mL microtube at 4° C. and preincubating the microtube at 25° C. for 60 minutes in a water bath incubator. Subsequently, reaction was performed at 30° C. for 20 minutes by adding 5 μL of the 500 μM [γ-^33P]ATP solution. After the reaction, a 10% aqueous trichloroacetic acid (TCA) solution was added to each microtube while cooled to 4° C., and mixed in a vortex mixer to terminate the reaction. The resultant was left standing at 4° C. for 10 minutes and then centrifuged, and the supernatant was discarded. Next, a 2% aqueous trichloroacetic acid (TCA) solution was added thereto, mixed in a vortex mixer, and then centrifuged, and the supernatant was discarded. This washing operation was performed twice. After the washing, precipitates were dissolved in a 1 N aqueous sodium hydroxide (NaOH) solution, and the energy quantity (radioactivity) of the reaction product was measured with a liquid scintillation counter.
The calculation of the inhibitory activity of the test compound against CDK7 was performed as a test compound concentration inhibiting 50% of the amount of ^33P bound to MBP (IC50 value) by using EXSUS (version 8.1.0, manufactured by CAC Exicare Corp.).
as §2

In assay [4] the target is T3, CDK2 (Homo sapiens, UniProt P24941).
T3 construct: purchased Invitrogen Corp. PV3267
The assay can be described thus: CDK2 enzyme inhibition test. Format: biochemical. To be noted: [γ-33P]ATP, MBP substrate; Ki=IC50/(1+S/Km); read-out: Ki value of CDK2 inhibitory activity. The method, then:
as §3, with “by Perkin Elmer,” for “by PerkinElmer,”, “A CDK2” for “A CDK7”, “available CDK2” for “available CDK7”, “by Invitrogen Corp.,” for “by Carna Biosciences, Inc.,”, “No. PV3267)” for “No. 04-108)”, “the 500 μM [γ-^33P]ATP solution, the CDK2” for “the CDK7”
as §1, with “CDK2 enzyme reaction” for “PLK1 enzyme reaction”, “mixed in vortex mixer,” for “mixed in a vortex mixer,”
The calculation of the inhibitory activity of the test compound against CDK2 was performed as a test compound concentration inhibiting 50% of the amount of ^33P bound to MBP (IC50 value) by using EXSUS (version 8.1.0, manufactured by CAC Exicare Corp.).
as §2

The term GI50 denotes the concentration that inhibits growth by half. For orientation: Ki means the dissociation constant of the complex between target and ligand, obtained from inhibition or displacement.

T2 sequence (P50613 whole entry): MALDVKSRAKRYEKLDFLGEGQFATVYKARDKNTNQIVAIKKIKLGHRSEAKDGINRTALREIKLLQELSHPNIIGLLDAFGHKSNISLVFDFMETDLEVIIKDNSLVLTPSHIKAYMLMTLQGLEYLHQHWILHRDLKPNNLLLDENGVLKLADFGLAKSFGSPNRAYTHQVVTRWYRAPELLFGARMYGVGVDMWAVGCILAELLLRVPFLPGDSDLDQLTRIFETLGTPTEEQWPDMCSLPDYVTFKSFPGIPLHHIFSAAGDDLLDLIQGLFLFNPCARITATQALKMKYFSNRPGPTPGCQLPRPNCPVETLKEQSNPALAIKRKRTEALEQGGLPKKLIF
T2 sequence (P51946 whole entry partner): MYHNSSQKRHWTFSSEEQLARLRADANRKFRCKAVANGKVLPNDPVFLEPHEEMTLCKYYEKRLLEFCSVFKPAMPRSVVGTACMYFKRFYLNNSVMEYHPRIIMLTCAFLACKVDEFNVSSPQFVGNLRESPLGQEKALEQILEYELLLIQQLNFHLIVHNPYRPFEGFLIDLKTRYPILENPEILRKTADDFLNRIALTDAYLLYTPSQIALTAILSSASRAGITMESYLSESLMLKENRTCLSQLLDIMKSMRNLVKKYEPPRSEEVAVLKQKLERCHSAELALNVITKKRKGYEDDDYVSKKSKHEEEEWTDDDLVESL
T2 sequence (P51948 whole entry partner): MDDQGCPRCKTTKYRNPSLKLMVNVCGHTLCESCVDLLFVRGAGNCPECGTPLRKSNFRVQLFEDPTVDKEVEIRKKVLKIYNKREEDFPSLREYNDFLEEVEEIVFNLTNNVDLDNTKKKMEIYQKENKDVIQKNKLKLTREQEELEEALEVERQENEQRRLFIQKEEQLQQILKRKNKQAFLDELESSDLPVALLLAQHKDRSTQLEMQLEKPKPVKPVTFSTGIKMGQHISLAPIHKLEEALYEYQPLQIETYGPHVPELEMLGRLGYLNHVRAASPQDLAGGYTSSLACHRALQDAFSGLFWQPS

As for `Cc1coc2c(NC(=O)N3Cc4c(NC(=O)C5([Si](C)(C)C)CCC5)n[nH]c4C3(C)C)c(F)ccc12` [IV-1061, N-(6-Fluoro-3-methylbenzofuran-7-yl)-6,6-dimethyl-3-[1-(trimethylsilyl)cyclobutanecarboxamido]-4,6-dihydropyrrolo[3,4-c]pyrazole-5(1H)-carboxamide], the GI50 in assay [1] is at most 0.1 µM. The Ki in assay [2] was at least 5 µM; in assay [3], at most 0.05 µM; in assay [4], at least 1 µM.
The corresponding values for `CC1(C)c2[nH]nc(NC(=O)C3([Si](C)(C)C)CCC3)c2CN1C(=O)Nc1ccsc1` [IV-1045, 6,6-Dimethyl-N-(thiophen-3-yl)-3-[1-(trimethylsilyl)cyclobutanecarboxamido]-4,6-dihydropyrrolo[3,4-c]pyrazole-5(1H)-carboxamide] are at most 0.1 µM, at least 5 µM, at most 0.05 µM and at least 1 µM.
With `Cc1ccc(F)c(Cl)c1NC(=O)N1Cc2c(NC(=O)C3([Si](C)(C)C)CCC3)n[nH]c2C1(C)C` [IV-747, N-(2-Chloro-3-fluoro-6-methylphenyl)-6,6-dimethyl-3-[1-(trimethylsilyl)cyclobutanecarboxamido]-4,6-dihydropyrrolo[3,4-c]pyrazole-5(1H)-carboxamide], the GI50 in assay [1] was at most 0.1 µM. Moreover, the values for the Ki in assay [2], in assay [3] and in assay [4] were at least 5 µM, at most 0.05 µM and at least 1 µM, respectively.
The corresponding values for `COc1ccc(C)c(F)c1NC(=O)N1Cc2c(NC(=O)C3([Si](C)(C)C)CCC3)n[nH]c2C1(C)C` [IV-689, N-(2-Fluoro-6-methoxy-3-methylphenyl)-6,6-dimethyl-3-[1-(trimethylsilyl)cyclobutanecarboxamido]-4,6-dihydropyrrolo[3,4-c]pyrazole-5(1H)-carboxamide] are at most 0.1 µM, at least 5 µM, at most 0.05 µM and at least 1 µM.
The corresponding values for `CC(F)(F)c1ccccc1NC(=O)N1Cc2c(NC(=O)C3([Si](C)(C)C)CCC3)n[nH]c2C1(C)C` [IV-45, N-[2-(1,1-Difluoroethyl)phenyl]-6,6-dimethyl-3-[1-(trimethylsilyl)cyclobutanecarboxamido]-4,6-dihydropyrrolo[3,4-c]pyrazole-5(1H)-carboxamide] are at most 0.1 µM, at least 5 µM, at most 0.05 µM and at least 1 µM.
The corresponding values for `CC1(C)c2[nH]nc(NC(=O)C(C)(C)[Si](C)(C)C)c2CN1C(=O)Nc1c(Cl)cccc1Cl` [II-199, N-(2,6-Dichlorophenyl)-6,6-dimethyl-3-[2-methyl-2-(trimethylsilyl)propanamido]-4,6-dihydropyrrolo[3,4-c]pyrazole-5(1H)-carboxamide] are at most 0.1 µM, at least 5 µM, at most 0.05 µM and at least 1 µM.
On to `Cc1ccc(F)c(NC(=O)N2Cc3c(NC(=O)C4([Si](C)(C)C)CCC4)n[nH]c3C2(C)C)c1Cl` [IV-703, N-(2-Chloro-6-fluoro-3-methylphenyl)-6,6-dimethyl-3-[1-(trimethylsilyl)cyclobutanecarboxamido]-4,6-dihydropyrrolo[3,4-c]pyrazole-5(1H)-carboxamide], for which the concentration for 50% growth inhibition (GI50) in assay [1] is at most 0.1 µM. Besides, the values for the Ki in assay [2], in assay [3] and in assay [4] were at least 5 µM, at most 0.05 µM and at least 1 µM, respectively.
Turning to `CC1(C)c2[nH]nc(NC(=O)C3([Si](C)(C)C)CCC3)c2CN1C(=O)N1CCc2ccccc21` [I-1000, N-[5-(Indoline-1-carbonyl)-6,6-dimethyl-1,4,5,6-tetrahydropyrrolo[3,4-c]pyrazol-3-yl]-1-(trimethylsilyl)cyclobutanecarboxamide], the Ki in assay [2] was at least 5 µM; in assay [4] it was at least 1 µM.
For the molecule `CC1(C)c2[nH]nc(NC(=O)C3([Si](C)(C)C)CCC3)c2CN1C(=O)N1CCOc2ccccc21` [I-1036, N-[5-(3,4-Dihydro-2H-benz[b][1,4]oxazine-4-carbonyl)-6,6-dimethyl-1,4,5,6-tetrahydropyrrolo[3,4-c]pyrazol-3-yl]-1-(trimethylsilyl)cyclobutanecarboxamide], the Ki was at least 5 µM in assay [2] and at least 1 µM in assay [4].
